Measured values: patent US11655208B2, “1-carboxy-2-hydroxy-3-iminopropane and extraction method thereof” (Jiangnan University, priority 2020, dated 2023)

Tests used:
Format in all cases: in vivo
male ICR mice [1] = assay: Open field test; settings: for Movement speed / Movement time / Stay time in the middle area: mice, gavage for 14 days, within 10 minutes, x ± s
Experimental: (§1) 30 SPF-level 4-week-old male ICR (Institute of Cancer Research) mice were adaptively reared for 1 week and then randomly divided into 3 groups with 10 mice in each group. An experimental group and a blank group were given an aqueous solution of the 1-carboxy-2-hydroxy-3-iminopropane and water at a dose of 1.0 g/kg·bw by gavage respectively, and a positive control group was given an aqueous solution of estazolam at a dose of 2 mg/kg·bw by the gavage. After continuous gavage for 14 days, tests were carried out. The tests were carried out around 25° C. in a quiet environment.
An open field maze of 4 units (each unit 50 cm×50 cm×38 cm) consisting of 4 activity spaces were used in the test, and 4 mice were tested each time. The open field spaces were cleaned with alcohol before the test, and the test was started 30 minutes after a sample group was administered (15 minutes after a positive control group was administered). During the test, tails of the mice were gently grasped, and the mice were placed in the middle of each unit of the open field maze for adaption for 5 minutes. A software start button was clicked to activate software for tracking moving paths of the mice. With an average movement speed, a movement time and a stay time in the middle area within 10 minutes as indexes, data analysis was conducted by using EthoVision XT 11 software. After each test was completed, urine and feces were cleaned, and a bottom and an inner wall of the maze were sprayed with 5-10% ethanol and then wiped with paper to remove an odor left by the mice. Then, a next group of the mice was tested, and influence of the odor and residue on the next group of the mice was avoided.

male ICR mice [2] = assay: Direct sleep observation test; settings: for 12 h sleep duration period: mice, sleep time within 12 hours after the gavage, x ± s
Experimental: as §1
After the open field test was completed, a direct sleep observation test was carried out the next night. 30 minutes after the gavage, a surveillance camera was used for observation, and a sleep time of the mice in each group within 12 hours after the gavage was recorded.

male ICR mice [3] = assay: Pentobarbital sodium induced sleep test; design: Sleep duration period: unit not given here
Experimental: as §1
Before the test, a preliminary test was carried out to determine a dose of pentobarbital sodium by intraperitoneal injection. After the intraperitoneal injection, the dose when all mice fell asleep for a moderate time was used as a standard, and the test was carried out with this dose (50 mg/kg·bw). 30 minutes after the last gavage, the mice were given the pentobarbital sodium by intraperitoneal injection to induce sleep. The time from injection of the pentobarbital sodium to disappearance of a righting reflex was recorded as a sleep latency period of the mice. The time from the disappearance of the righting reflex to reappearance of the righting reflex was recorded as a […] of the mice. Whether or not the latency period of each group was shortened and whether or not the sleep time was prolonged were observed.

[4] = mice, pentobarbital sodium 50 mg/kg·bw i.p. 30 minutes after the last gavage, x ± s
[5] = pentobarbital sodium induced sleep, vs blank group, P<0.05

Row | SMILES | Movement speed (male ICR mice [1]) [cm/s] | Movement time (male ICR mice [1]) [s] | Stay time in the middle area (male ICR mice [1]) [%] | effect on stay time in the middle area of the mice (in words) (male ICR mice [1]; vs blank group, P<0.01) | effect on movement speed of the mice (in words) (male ICR mice [1]; vs blank group, P<0.05) | effect on movement time of the mice (in words) (male ICR mice [1]; vs blank group, P<0.05) | 12 h sleep duration period (male ICR mice [2]) [min] | total sleep duration period within 12 hours (in words) (male ICR mice [2]; vs blank group, P<0.05) | Latency period (male ICR mice [3]; [4]) [s] | Sleep duration period (male ICR mice [3]; [4]) | sleep duration period prolonged by (male ICR mice [3]; [5]) [%] | sleep latency period shortened by (male ICR mice [3]; [5]) [%]
1 | N=CC(O)CC(=O)O (centres unmarked) [1-carboxy-2-hydroxy-3-iminopropane] | 4.66 ± 1.14 | 333.76 ± 56.84 | 17.81 ± 5.14 | significantly increased | significantly reduced | significantly reduced | 374.33 ± 24.48 | longer than that of the blank group | 3.60 ± 0.368 | 34.73 ± 12.71 | 61.49 | 24.62
2 | Clc1ccc2c(c1)C(c1ccccc1)=NCc1nncn1-2 [estazolam, reference compound] | 4.60 ± 0.96 | 325.85 ± 51.64 | 20.63 ± 9.01 | – | – | – | 404.10 ± 34.03 | – | 2.81 ± 0.57 | – | – | –
